Where two headings read alike, the source gives them in different places.

The test system of one series is L. major promastigotes. The experiment in a line: L. major promastigote viability, resazurin reduction. In kind it is cell-based, Leishmania major. As to conditions: Leishmania major. The text has this:
(§1) The infectivity of the parasites was boosted by passaging in Balb/c mice and culturing the infected lymph nodes after six weeks. L. infantum (MHOM / BR / 76 / M4192) parasite was passaged in the same media formulation with 0.5% urine.
(Resazurin is reduced to fluorescent resorufin, in cell work by metabolically active cells.)

Series [1] relates to L. infantum promastigotes. The experiment in a line: L. infantum promastigote viability, resazurin reduction. The class given is cell-based, Leishmania infantum. To be noted: Leishmania infantum.
Excerpt: as §1

Series [2] deals with L. major axenic amastigotes. The experiment in a line: L. major axenic amastigote viability, resazurin reduction. To be noted: Leishmania major. Here is the method:
L. major LV561(MHOM/IL/67/LRC-L137 JERICHO II) amastigotes were passaged in Grace insect medium supplemented with NaHCO3, 0.1% amikin and 20% of FCS (pH: 5.4) and kept at 33°C.
Exponential growth phase promastigotes of L. major or L. infantum and axenic amastigotes (L. major) were harvested and seeded in 384 well plates (white, non-transparent, tissue culture treated, flat bottom; Corning) (0.5x10^5 cells per well). Compounds were pre-dispensed into the plate with an Echo 650 acoustic dispenser (Beckman Coulter). After 72h incubation, resazurin was added (1:10 v/v) from a […] stock in PBS, followed by incubation for six hours. Then, fluorescence intensity was measured using a microplate reader (Synergy H1, BioTek) with excitation filter: 550 nm and emission filter: 590 nm. Efficient compounds were selected for the next round of viability assay with 2.5 μM concentrations of the compounds. […] All experiments were performed with AmB as a positive control drug in parallel.
Axenic amastigotes, the relevant form that persists in the infected host, were generated in the lab through established procedures, employing harsh pH (pH 5) and high temperature (33°C) conditions.

Another series relates to T. brucei brucei BSF. Briefly: T. brucei BSF viability, resazurin reduction. In kind it is cell-based, Trypanosoma brucei brucei. As to conditions: Trypanosoma brucei; for EC50: read-out: EC50 T. brucei BSF, dose response, triplicate, ± SD (Table 2) / ± SE (S3 Table). Here is the method:
T. brucei brucei (strain 427 Lister) blood stream form (BSF) parasites were passaged in complete HMI-9 media supplemented with 10% FCS, Pen-Strep (0.1%) and 2-mercaptoethanol (0.014 v/v) and kept in a 37° C CO2 incubator in filter-cap flasks.
(§2) Viability of T. brucei brucei BSF and T. cruzi trypomastigotes was assayed with fluorescence resazurin reduction assay, essentially as described above. […] Next, selected compounds were tested at 2.5 μM concentration, and promising compounds subjected to 18 concentrations dose response analyses. AN3057 and AmB were used as a control drug in T. brucei and T. cruzi, respectively.

Another series deals with T. cruzi trypomastigotes. The experiment in a line: T. cruzi viability, resazurin reduction. To be noted: Trypanosoma cruzi. The class given is cell-based, Trypanosoma cruzi. Here is the method:
T. cruzi (Y strain) trypomastigotes were passaged in liver infusion broth media supplemented with tryptose, NaCl, Na2HPO4, KCl, glucose, hemin, Pen-Strep (1%), 10% FCS (pH: 7.2) and kept at 28°C.
as §2

For a further series, the system named is E. histolytica. Briefly: E. histolytica viability, ATP luminescence (Cell titer glo). To be noted: Entamoeba histolytica; for EC50: 9 to 16-point dose response. The class given is cell-based, Entamoeba histolytica. Here is the method: Entamoeba histolytica (strain B2-5) was passaged in TY-1 medium (Trypticase peptone BBL, Yeast extract BBL, glucose, NaCl, K2HPO4, KH2PO4, cysteine, ascorbic acid, ammonium iron citrate, adult bovine serum, Diamond tween 80, penicillin G, amikacin (pH:6.8)) and kept in 37°C incubator in completely filled tubes with closed lid.
Viability of E. histolytica was assayed via a luminescence assay based on ATP quantification in the live cells. Briefly, 2.5x10^4 cell/ml were exposed to 25 μM of compounds in 96 well plates (non-transparent, tissue culture treated, flat bottom; SPL Life Sciences) in triplicate for 48h. Plates were incubated in sealed anaerobic bags (Oxoid AGS) together with an Anaerogen compact bag (Thermo Scientific) and anaerobic indicator (Thermo Scientific) at 37°C. Then, Cell titer glo reagent (Promega) was added to the reaction (1:5) according to manufacturers’ instruction. After 15 min of orbital shaking, followed by 10 min incubation at RT, ATP-bioluminescence was quantified at RT using a Synergy H1 plate reader (Synergy H1, BioTek). Metronidazole was included as control drug in all the assays for E. histolytica. Test compounds indicating significant growth reduction in the primary screen were subjected to potency determination. These secondary screens were essentially carried out as detailed above, but with a 9 to 16-point concentration range of the test compounds spanning 0.01–100 μM.

Series [3] in a line: Cytotoxicity assay J774, resazurin reduction. The class given is cell-based, murine. As to conditions: mouse, J774 macrophage cells. Here is the method:
Mammalian cell lines (J774 and HepG2) were passaged in RPMI media supplemented with MEM, Pen-Strep (1%) and 10% FCS. Cultures were kept at 37°C incubator with 5% CO2 in filter-cap flasks.
Murine macrophage cells (J774) and human hepatocyte carcinoma HepG2 cells were seeded at 0.5x10^5 cell/well in 384 well plates in triplicate, exposed to serial dilution of compounds, dispensed using an Echo 650 acoustic dispenser (Labcyte). After incubation for 72 h at 37°C, 5% CO2, cell viability was determined using fluorescence resazurin reduction assay (λEx: 550 nm; λEm: 590 nm).

Series [4] relates to intracellular L. infantum amastigotes. Briefly: Parasite rescue assay (intramacrophage, J774 infected with L. infantum). In kind it is cell-based, Leishmania infantum. As to conditions: J774, 25 µM; intracellular amastigote; read-out: viability, intracellular L. major amastigote (25 µM).
The test system is the same in series [5]. The series is described as above. In kind it is cell-based, Leishmania infantum. As to conditions: Leishmania infantum, J774, rescue assay in J774, 25 µM; read-out: Residual viability, intracellular L. infantum amastigote (25 µM). Here is the method:
After 24 h incubation, cells were washed five times with serum free RPMI and exposed to a serial dilution of test compounds, prepared using an acoustic dispenser (Echo 650, Labcyte), in RPMI (2% FCS). After two days, cells were washed thrice, and 20 μl of 0.05% SDS in RPMI was added upon removal of the supernatant. Upon incubation under orbital shaking for 30 seconds, cell lysis was stopped by addition of 180 μl M199 medium supplemented with 10% FCS. […] Then, fluorescence intensity of the samples was measured with a microplate reader (Synergy H1, BioTek) with λEx: 550 nm and λEm: 590 nm. Percent of viability was calculated according to cell only and media controls.
J774A.1 cells (J774) were infected with L. infantum metacyclic promastigotes. […] After controlled lysis of the infected macrophages, the released parasites were quantified using a resazurin based viability assay.

The mark [6] stands for this setting: 72 h, read-out: viability, L.major promastigote (25 µM).
Where [7] appears, read: 25 µM, read-out: viability, L.major promastigote (25 µM).
Where [8] appears, read: sheet LTC_compound_viability, value ± spread, read-out: viability, L. infantum promastigote (2.5 µM).
Where [9] appears, read: sheet LTC_compound_viability, value ± spread, read-out: viability, L. infantum promastigote (25 µM).
The mark [10] stands for this setting: read-out: viability, L.major amastigote (25 µM).
Where [11] appears, read: read-out: viability, T.brucei (2.5 µM).
Where [12] appears, read: read-out: viability, T.brucei (25 µM).
The mark [13] stands for this setting: read-out: viability, T.cruzi (2.5 µM).
Where [14] appears, read: 25 µM, read-out: viability, T.cruzi (25 µM).
[15] abbreviates: read-out: viability, E.histolytica (2.5 µM).
Setting [16] is: read-out: viability, E.histolytica (25 µM).
The mark [17] stands for this setting: read-out: viability, J774 (2.5 µM).
Setting [18] is: read-out: viability, J774 (25 µM).

The viability is a read-out of living cells in per cent, often relative to untreated cells. The EC50 is the midpoint of the concentration-response curve. Regarding `O=C(Cc1ccc2ccccc2c1)NC(Cc1ccccc1)C(O)CN1CCN(Cc2ccccc2)CC1` (stereo not drawn) [LTC-6], the viability at 25 µM in the series with L. major promastigotes (setting [6]) is 66.2 ± 3.33%; with L. major promastigotes (setting [7]), 0.62 ± 0.39%; in [1] (setting [9]), 0.37 ± 0.06%; in series [2] (setting [10]) it was 73.5 ± 1.98%; in the series with T. brucei brucei BSF (setting [12]), 2.92 ± 1.26%; with T. cruzi trypomastigotes (setting [14]) it was 18.4 ± 1.57%. The viability at 25 µM in the series with E. histolytica (setting [16]) is 2.71 ± 1.39%; in series [4], 47.3 ± 9.73%. Further, the viability at 2.5 µM turned out to be 100.6 ± 0.6% in series [1] (setting [8]), 91 ± 5.89% with T. brucei brucei BSF (setting [11]), 56.4 ± 4.53% in the series with T. cruzi trypomastigotes (setting [13]) and 86.8 ± 20.5% in the series on E. histolytica (setting [15]). The concentration for a half-maximal effect (EC50) worked out at 5.6 ± 1.7 µM in the series on T. brucei brucei BSF and 4.9 ± 1.8 µM with E. histolytica (48 h). The viability at 72 h, 2.5 µM in series [3] (setting [17]) was 106 ± 6.66%. Also, the viability at 72 h, 25 µM in series [3] (setting [18]) was 2.99 ± 2.56%.

For `O=C(CCc1ccc(Br)cc1)NC(Cc1ccccc1)C(O)CN1CCN(Cc2ccccc2)CC1` (stereo not drawn) [LTC-10], the viability at 25 µM was found to be 65.1 ± 3.01% with L. major promastigotes (setting [6]); 0.71 ± 1% with L. major promastigotes (setting [7]); 0.85 ± 0.33% in series [1] (setting [9]); 74.2 ± 2.26% in series [2] (setting [10]); 2.86 ± 1.31% in the series on T. brucei brucei BSF (setting [12]); 21.5 ± 1.69% in the series with T. cruzi trypomastigotes (setting [14]). Moreover, the viability at 25 µM with E. histolytica (setting [16]) was determined as 4.28 ± 0.62%; in [4] it was 33.7 ± 12%. Besides, the viability at 2.5 µM amounted to 100.8 ± 0.96% in series [1] (setting [8]), 99.8 ± 6.25% with T. brucei brucei BSF (setting [11]), 61.1 ± 6.21% in the series with T. cruzi trypomastigotes (setting [13]) and 73.2 ± 7% in the series with E. histolytica (setting [15]). Further, the EC50 in the series on T. brucei brucei BSF came to 6 ± 1.7 µM; in the series with E. histolytica (48 h) it was 6.5 ± 1.7 µM. Moreover, the viability at 72 h, 2.5 µM in series [3] (setting [17]) was found to be 99.9 ± 5.33%. Moreover, the viability at 72 h, 25 µM in series [3] (setting [18]) was determined as 2.99 ± 1.94%.

Turning to `CC[C@@H](C)[C@H](c1nc2ccccc2n1Cc1cn(-c2c(F)c(F)c(F)c(F)c2F)nn1)N1C(=O)c2ccccc2C1=O` [PHT-41], the viability at 25 µM with L. major promastigotes (25 µM, 72 h, vs non-treated cells, read-out: Residual viability, L.major promastigote (25 µM)) was 21.5 ± 1.47%; in series [1] (72 h, vs non-treated cells, ± SD, triplicate, read-out: Residual viability, L. infantum promastigote (25 µM)), 12.4 ± 1.22%; in [2] (72 h, read-out: Residual viability, L.major amastigote (25 µM)), 4.6%; in series [5], 81.4 ± 2.86%; with T. brucei brucei BSF (72 h, BSF, 72 h, read-out: Residual viability, T.brucei (25 µM)) it was 3.15 ± 3%; in the series on T. cruzi trypomastigotes (72 h, read-out: Residual viability, T.cruzi (25 µM), 25 µM, 72 h), 22.7 ± 0.63%. Also, the viability at 25 µM with E. histolytica (25 µM, 48 h, read-out: Residual viability, E.histolytica (25 µM)) was 53.3 ± 1.97%. Moreover, the viability at 2.5 µM in series [1] (72 h, vs non-treated cells, read-out: Residual viability, L. infantum promastigote (2.5 µM)) stood at 54.6 ± 1.29%; in series [2] (72 h, read-out: Residual viability, L.major amastigote (2.5 µM)), 64.8 ± 5.36%; with T. brucei brucei BSF (72 h, BSF, 72 h, read-out: Residual viability, T.brucei (2.5 µM)), 57.4 ± 11%; in the series with T. cruzi trypomastigotes (72 h, 72 h, read-out: Residual viability, T.cruzi (2.5 µM)), 64.5 ± 2.58%; in the series with E. histolytica (2.5 µM, 48 h, read-out: Residual viability, E.histolytica (2.5 µM)), 110 ± 24.2%. Besides, the half-maximal effective concentration (EC50) in [2] (read-out: EC50 L. major axenic amastigote) is 3.6 ± 2.1 µM. Further, the viability at 72 h, 2.5 µM in series [3] (cytotoxicity, 72 h, read-out: Residual viability, J774 (2.5 µM)) was determined as 96.1 ± 3.84%. Further, the viability at 72 h, 25 µM in [3] (cytotoxicity, 72 h, read-out: Residual viability, J774 (25 µM)) was found to be 86.1 ± 5.26%.

Consider `O=C(Cc1cccc(C(F)(F)F)c1)NC(Cc1ccccc1)C(O)CN1CCN(Cc2ccccc2)CC1` (stereo not drawn) [LTC-8], for which the viability at 25 µM with L. major promastigotes (setting [6]) was 67.5 ± 1.55%; with L. major promastigotes (setting [7]), 0.28 ± 0.16%; in [1] (setting [9]), 0.96 ± 0.46%; in [2] (setting [10]) it was 75.1 ± 2.03%; in the series with T. brucei brucei BSF (setting [12]), 3.15 ± 1.45%; in the series with T. cruzi trypomastigotes (setting [14]) it was 33.8 ± 0.8%. In addition, the figures for the viability at 25 µM (with E. histolytica (setting [16]); in series [4]) were 0.54 ± 0.81% and 67.2 ± 5.73%, respectively. Further, the viability at 2.5 µM in series [1] (setting [8]) was 101 ± 1.24%; with T. brucei brucei BSF (setting [11]), 98.5 ± 6.21%; in the series on T. cruzi trypomastigotes (setting [13]), 59.3 ± 1.4%; with E. histolytica (setting [15]) it was 60.3 ± 6.76%. Also, the EC50 came to 7.3 ± 1.7 µM in the series on T. brucei brucei BSF and 4.4 ± 1.7 µM with E. histolytica (48 h). Further, in series [3] (setting [17]), the viability at 72 h, 2.5 µM was found to be 102 ± 8.6%. Besides, the viability at 72 h, 25 µM in series [3] (setting [18]) turned out to be 4.16 ± 2.39%.

The values are drawn from paper PMC10994559 (PLOS Neglected Tropical Diseases, 2024).
